From patent US11279687B2, “Compounds and compositions for the inhibition of NAMPT” (Valo Health, Inc., priority 2010, dated 2022)

Columns and labels:
A2780 cells = test: In-vitro cell proliferation assay (SRB), A2780 cells; type: cell-based; conditions: Homo sapiens, A2780, 72 h, A2780 cells, 72 hours, SRB; read-out: A2780 IC50;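 further: viable cell number read as SRB absorbance, background from media-only wells subtracted, IC50 interpolated from percent inhibition at two bracketing compound concentrations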
NAMPT = NAMPT (Homo sapiens (Human), UniProt P43490); test: NAMPT biochemical inhibition assay (NMN quantified by mass spectrometry); conditions: NAMPT biochemical inhibition; read-out: Biochem IC50
Chain of NAMPT (P43490 whole entry): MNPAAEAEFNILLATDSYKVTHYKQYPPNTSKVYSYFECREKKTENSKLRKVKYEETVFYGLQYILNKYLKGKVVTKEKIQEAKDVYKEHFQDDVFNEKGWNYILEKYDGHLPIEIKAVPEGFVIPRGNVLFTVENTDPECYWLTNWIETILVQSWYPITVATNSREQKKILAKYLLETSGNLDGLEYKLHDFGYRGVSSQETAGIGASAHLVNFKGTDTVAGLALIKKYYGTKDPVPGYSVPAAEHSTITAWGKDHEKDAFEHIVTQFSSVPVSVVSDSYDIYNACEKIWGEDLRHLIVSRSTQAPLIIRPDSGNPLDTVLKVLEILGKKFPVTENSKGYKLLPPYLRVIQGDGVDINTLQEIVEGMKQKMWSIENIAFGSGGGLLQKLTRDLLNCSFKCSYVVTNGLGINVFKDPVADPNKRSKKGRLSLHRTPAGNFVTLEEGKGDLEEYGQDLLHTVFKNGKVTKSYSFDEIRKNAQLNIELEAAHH

SMILES | IC50 (A2780 cells) | IC50 (NAMPT)
Cc1ccc(NS(=O)(=O)c2ccc(NC(=O)NCc3cccnc3)cc2)c(Cl)c1 [3-{4-[(2-chloro-4-methylphenyl)sulfamoyl]phenyl}-1-(pyridin-3-ylmethyl)urea] | 32 nM | 1 nM
Cc1ccc(F)c(S(=O)(=O)c2ccc(NC(=O)NCc3cccnc3)cc2)c1Cl [3-{4-[(2-chloro-6-fluoro-3-methylbenzene)sulfonyl]phenyl}-1-(pyridin-3-ylmethyl)urea] | 336 nM | 7 nM
O=C(NCc1cccnc1)Nc1ccc(S(=O)(=O)c2ccccc2Cl)cc1 [3-{4-[(2-chlorobenzene)sulfonyl]phenyl}-1-(pyridin-3-ylmethyl)urea] | 475 nM | 5 nM
O=C(NCc1cccnc1)Nc1ccc(S(=O)(=O)Nc2ccccc2Cl)cc1 [3-{4-[(2-chlorophenyl)sulfamoyl]phenyl}-1-(pyridin-3-ylmethyl)urea] | 41 nM | 3 nM
CCOc1ccccc1S(=O)(=O)c1ccc(NC(=O)NCc2cccnc2)cc1 [3-{4-[(2-ethoxybenzene)sulfonyl]phenyl}-1-(pyridin-3-ylmethyl)urea] | 0.4 nM | 2 nM
CCOc1ccccc1NS(=O)(=O)c1ccc(NC(=O)NCc2cccnc2)cc1 [3-{4-[(2-ethoxyphenyl)sulfamoyl]phenyl}-1-(pyridin-3-ylmethyl)urea] | 32 nM | 3 nM
CCc1ccccc1S(=O)(=O)c1ccc(NC(=O)NCc2cccnc2)cc1 [3-{4-[(2-ethylbenzene)sulfonyl]phenyl}-1-(pyridin-3-ylmethyl)urea] | 169 nM | 2 nM
COc1cccc(S(=O)(=O)c2ccc(NC(=O)NCc3cccnc3)cc2)c1F [3-{4-[(2-fluoro-3-methoxybenzene)sulfonyl]phenyl}-1-(pyridin-3-ylmethyl)urea] | 387 nM | 1 nM
COc1ccc(S(=O)(=O)c2ccc(NC(=O)NCc3cccnc3)cc2)c(F)c1 [3-{4-[(2-fluoro-4-methoxybenzene)sulfonyl]phenyl}-1-(pyridin-3-ylmethyl)urea] | 311 nM | 3 nM
Cc1ccc(S(=O)(=O)c2ccc(NC(=O)NCc3cccnc3)cc2)c(F)c1 [3-{4-[(2-fluoro-4-methylbenzene)sulfonyl]phenyl}-1-(pyridin-3-ylmethyl)urea] | 517 nM | 2 nM
Cc1ccc(NS(=O)(=O)c2ccc(NC(=O)NCc3cccnc3)cc2)c(F)c1 [3-{4-[(2-fluoro-4-methylphenyl)sulfamoyl]phenyl}-1-(pyridin-3-ylmethyl)urea] | 157 nM | 2 nM
Cc1ccc(F)c(S(=O)(=O)c2ccc(NC(=O)NCc3cccnc3)cc2)c1 [3-{4-[(2-fluoro-5-methylbenzene)sulfonyl]phenyl}-1-(pyridin-3-ylmethyl)urea] | > 1000 nM | 12 nM
COc1cccc(F)c1S(=O)(=O)c1ccc(NC(=O)NCc2cccnc2)cc1 [3-{4-[(2-fluoro-6-methoxybenzene)sulfonyl]phenyl}-1-(pyridin-3-ylmethyl)urea] | 10 nM | 2 nM
O=C(NCc1cccnc1)Nc1ccc(S(=O)(=O)c2ccccc2F)cc1 [3-{4-[(2-fluorobenzene)sulfonyl]phenyl}-1-(pyridin-3-ylmethyl)urea] | 493 nM | 3 nM
O=C(NCc1cccnc1)Nc1ccc(S(=O)(=O)Nc2ccccc2I)cc1 [3-{4-[(2-iodophenyl)sulfamoyl]phenyl}-1-(pyridin-3-ylmethyl)urea] | 39 nM | 0.8 nM
COc1ccc(C)cc1S(=O)(=O)c1ccc(NC(=O)NCc2cccnc2)cc1 [3-{4-[(2-methoxy-5-methylbenzene)sulfonyl]phenyl}-1-(pyridin-3-ylmethyl)urea] | 7 nM | 4 nM

SMILES | IC50 (A2780 cells) | IC50 (NAMPT)
COc1ccc(C)cc1NS(=O)(=O)c1ccc(NC(=O)NCc2cccnc2)cc1 [3-{4-[(2-methoxy-5-methylphenyl)sulfamoyl]phenyl}-1-(pyridin-3-ylmethyl)urea] | 2 nM | 2 nM
COc1ccccc1S(=O)(=O)c1ccc(NC(=O)NCc2cccnc2)cc1 [3-{4-[(2-methoxybenzene)sulfonyl]phenyl}-1-(pyridin-3-ylmethyl)urea] | 10 nM | 2 nM
COc1ncccc1NS(=O)(=O)c1ccc(NC(=O)NCc2cccnc2)cc1 [3-{4-[(2-methoxypyridin-3-yl)sulfamoyl]phenyl}-1-(pyridin-3-ylmethyl)urea] | 114 nM | 7 nM
Cc1ccccc1S(=O)(=O)c1ccc(NC(=O)NCc2cccnc2)cc1 [3-{4-[(2-methylbenzene)sulfonyl]phenyl}-1-(pyridin-3-ylmethyl)urea] | 450 nM | 2 nM
CC(C)(NS(=O)(=O)c1ccc(NC(=O)NCc2cccnc2)cc1)c1ccccc1 [3-{4-[(2-phenylpropan-2-yl)sulfamoyl]phenyl}-1-(pyridin-3-ylmethyl)urea] | 39 nM | 5 nM
COC[C@@H]1CCCN1S(=O)(=O)c1ccc(NC(=O)NCc2cccnc2)cc1 [3-{4-[(2S)-2-(methoxymethyl)pyrrolidine-1-sulfonyl]phenyl}-1-(pyridin-3-ylmethyl)urea] | 60 nM | 2 nM
CC[C@H]1CCCCN1S(=O)(=O)c1ccc(NC(=O)NCc2cccnc2)cc1 [3-{4-[(2S)-2-ethylpiperidine-1-sulfonyl]phenyl}-1-(pyridin-3-ylmethyl)urea] | 18 nM | 4 nM
O=C(NCc1cccnc1)Nc1ccc(S(=O)(=O)c2ccc(Cl)c(Cl)c2)cc1 [3-{4-[(3,4-dichlorobenzene)sulfonyl]phenyl}-1-(pyridin-3-ylmethyl)urea] | 100 to 1000 nM | 2.9 nM
O=C(NCc1cccnc1)Nc1ccc(S(=O)(=O)Nc2ccc(Cl)c(Cl)c2)cc1 [3-{4-[(3,4-dichlorophenyl)sulfamoyl]phenyl]-1-(pyridin-3-ylmethyl)urea] | 122 nM | 6 nM
O=C(NCc1cccnc1)Nc1ccc(S(=O)(=O)c2ccc(F)c(F)c2)cc1 [3-{4-[(3,4-difluorobenzene)sulfonyl]phenyl}-1-(pyridin-3-ylmethyl)urea] | 214 nM | 3 nM
COc1ccc(S(=O)(=O)c2ccc(NC(=O)NCc3cccnc3)cc2)cc1OC [3-{4-[(3,4-dimethoxybenzene)sulfonyl]phenyl}-1-(pyridin-3-ylmethyl)urea] | 17 nM | 5 nM
COc1ccc(NS(=O)(=O)c2ccc(NC(=O)NCc3cccnc3)cc2)cc1OC [3-{4-[(3,4-dimethoxyphenyl)sulfamoyl]phenyl]-1-(pyridin-3-ylmethyl)urea] | 116 nM | 5 nM
Cc1ccc(NS(=O)(=O)c2ccc(NC(=O)NCc3cccnc3)cc2)cc1C [3-{4-[(3,4-dimethylphenyl)sulfamoyl]phenyl}-1-(pyridin-3-ylmethyl)urea] | 93 nM | 3 nM
O=C(NCc1cccnc1)Nc1ccc(S(=O)(=O)c2cc(Cl)cc(Cl)c2)cc1 [3-{4-[(3,5-dichlorobenzene)sulfonyl]phenyl}-1-(pyridin-3-ylmethyl)urea] | 100 to 1000 nM | 1.9 nM
O=C(NCc1cccnc1)Nc1ccc(S(=O)(=O)c2cc(F)cc(F)c2)cc1 [3-{4-[(3,5-difluorobenzene)sulfonyl]phenyl}-1-(pyridin-3-ylmethyl)urea] | 284 nM | 3 nM
